Data published in patent US9162975B2, “Phenyl carbamate compounds for use in alleviating or treating pain” (Bio-Pharm Solutions Co., Ltd., priority 2011, dated 2015).

Columns and labels:
[1] = system: vincristine-induced pain model in rats; assay: Antiallodynic activity on vincristine-induced pain model, von Frey; type: in vivo, Sprague-Dawley rats; conditions: 0.5 hr, paw withdrawal threshold relative to sham
Description: Male, Sprague-Dawley rats (300-320 g, Nara Bio, Korea) were habituated for 1 week before surgery and allowed free access to food and water throughout the experimentation. Room temperature and humidity were maintained at 24±2° C. and 50±10%, respectively.
Vincristine was established by the procedure of Natsuko et al. (2001) with minor modifications. Vincristine was intravenously infused continuously for 14 days using a mini-osmotic pump as follows. Vincristine sulfate solution (Hospira, Australia) was diluted with 0.9% saline to 30 ug/kg, final dose. The pumps (Alzet Model 2002, USA) were filled with the vincristine solution and primed by incubation at 37° C. for 4 h before the infusion. Briefly, animal under gaseous anesthesia with isoflurane a 4:4 flow ratio of NO2. […]
(§1) Tactile sensitivity (Mechanical allodynia) was evaluated using von Frey monofilaments before and after treatment, and animals were used withdrawal threshold value was less than 4 g. […] The tactile sensitivity for ipsilateral hind paw was measured using the up-and-down method (Dixon, 1980) with seven von Frey monofilaments (0.4, 1, 2, 4, 6, 8, and 15 g) to 3 trials. […] The 50% paw withdrawal threshold for each paw was calculated using the following formula: [Xth] log=[vFr] log+ky where [vFr] is the force of the last von Frey used, k=0.2249 which is the average interval (in log units) between the von Frey monofilaments, and y is a value that depends upon the pattern of withdrawal responses (Dixon, 1980).
Antiallodynic effect of compound of Example 1 was evaluated at the dose of 1, 5 and 10 mg/kg (n=6), intraperitoneally administrated in a volume of 5 ul/g, bw in a vehicle of 30% (v/v) PEG. […]
The relative values compared to the sham (% control) were calculated and shown in Table 6 and FIG. 6, which show an antiallodynic effect of Compound 1 on vincristine-induced pain model in rats.

[2] = system: STZ-induced pain model in rats; assay: Antiallodynic activity on streptozotocin (STZ)-induced diabetic pain model, von Frey; type: in vivo, Sprague-Dawley rats; conditions: 0.5 hr, paw withdrawal threshold relative to sham
Description: Male, Sprague-Dawley rats (200-220 g, Nara Bio, Korea) were habituated for 1 week before surgery and allowed free access to food and water throughout the experimentation. Room temperature and humidity were maintained at 24±2° C. and 50±10%, respectively.
STZ-induced diabetic pain model was established with a modified method of Rakieten et al. (1963) and Bertrand Aubel et al. (2004). All animals were fasted 4 to 6 hr prior to STZ injection. STZ (sigma, USA) was dissolved in 20 mM sodium citrate buffer, pH 5.5 (sigma, USA) and intraperitoneally injected at 75 mg/kg, 4 ul/g, bw into the rats Sham controls were injected with same volume of 20 mM sodium citrate buffer, pH 5.5 and vehicle controls were identical to STZ model, except for administration of vehicles. Rats were supplied with 10% sucrose water for 2 days against sudden hypoglycemia. 3 days later, the induction of diabetes was checked by measurement of tail vein blood glucose levels with a blood glucose meter. (LifeScan OneTouch Ultra, USA). If blood glucose was not >300 mg/dl by 72 hr, the rat was excluded from the diabetic group.
as §1, with “treatment of compound example 1” for “treatment,”
Antiallodynic effect of compound of Example 1 was evaluated at the dose of 10, 30 and 60 mg/kg (n=6), intraperitoneally administrated in a volume of 5 ul/g, bw in a vehicle of 30% (v/v) PEG. […]

[3] = dose 10 mg/kg intraperitoneally

With `C[C@H](OC(N)=O)[C@@H](O)c1ccccc1Cl` [Example 1, 1-(2-chlorophenyl)-(S)-1-hydroxypropyl-(S)-2-carbamate] the “% Control (vincristine-induced pain model)” value ([1]; dose 1 mg/kg intraperitoneally) was 20.7%, the “% Control (vincristine-induced pain model)” value ([1]; dose 5 mg/kg intraperitoneally) was 63.1% and the “% Control (vincristine-induced pain model)” value [1, 3] was 71.7%. The “% Control (STZ-induced pain model)” value [2, 3] was 33.9%, the “% Control (STZ-induced pain model)” value ([2]; dose 30 mg/kg intraperitoneally) was 49.9% and the “% Control (STZ-induced pain model)” value ([2]; dose 60 mg/kg intraperitoneally) was 73.7%.
